Measurements taken from PubChem BioAssay (NCI).
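Interpolation was linear, between the two tested concentrations surrounding the appropriate level; five concentrations were tested over 48 hours in 96-well plates. GI50 marks 50% less growth. Definition used: TGI = concentration required for complete inhibition of growth.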

Legend:
Experiment in all cases: inhibition of tumour cell growth, NCI panel, 48 h
RXF-631 renal = test system: RXF-631 renal
RPMI-8226 leukemia = test system: RPMI-8226 leukemia
K-562 leukemia = test system: K-562 leukemia
CCRF-CEM leukemia = test system: CCRF-CEM leukemia
LXFL 529 NSCLC = test system: LXFL 529 NSCLC
COLO 205 colon = test system: COLO 205 colon
HCT-116 colon = test system: HCT-116 colon
UACC-257 melanoma = test system: UACC-257 melanoma
DMS 273 small cell lung = test system: DMS 273 small cell lung
OVCAR-3 ovarian = test system: OVCAR-3 ovarian
NCI-H460 lung = test system: NCI-H460 lung
HOP-92 NSCLC = test system: HOP-92 NSCLC
DMS 114 small cell lung = test system: DMS 114 small cell lung
UO-31 renal = test system: UO-31 renal
MOLT-4 leukemia = test system: MOLT-4 leukemia
TK-10 renal = test system: TK-10 renal
SF-295 CNS = test system: SF-295 CNS
U251 CNS = test system: U251 CNS
KM20L2 colon = test system: KM20L2 colon
KM12 colon = test system: KM12 colon
UACC-62 melanoma = test system: UACC-62 melanoma
M14 melanoma = test system: M14 melanoma
HCC-2998 colon = test system: HCC-2998 colon
HL-60(TB) leukemia = test system: HL-60(TB) leukemia
ACHN renal = test system: ACHN renal
M19-MEL melanoma = test system: M19-MEL melanoma
SW-620 colon = test system: SW-620 colon
786-0 renal = test system: 786-0 renal
OVCAR-5 ovarian = test system: OVCAR-5 ovarian
OVCAR-4 ovarian = test system: OVCAR-4 ovarian
LOX IMVI melanoma = test system: LOX IMVI melanoma
SK-OV-3 ovarian = test system: SK-OV-3 ovarian
A498 renal = test system: A498 renal
CAKI-1 renal = test system: CAKI-1 renal
MALME-3M melanoma = test system: MALME-3M melanoma
EKVX NSCLC = test system: EKVX NSCLC
OVCAR-8 ovarian = test system: OVCAR-8 ovarian
HOP-62 NSCLC = test system: HOP-62 NSCLC
SNB-19 CNS = test system: SNB-19 CNS
IGROV1 ovarian = test system: IGROV1 ovarian
SF-539 CNS = test system: SF-539 CNS
DLD-1 colon = test system: DLD-1 colon
SK-MEL-5 melanoma = test system: SK-MEL-5 melanoma
SNB-78 CNS = test system: SNB-78 CNS
A549 NSCLC = test system: A549 NSCLC
SK-MEL-2 melanoma = test system: SK-MEL-2 melanoma
HCT-15 colon = test system: HCT-15 colon
SNB-75 CNS = test system: SNB-75 CNS
SN12C renal = test system: SN12C renal
SR leukemia = test system: SR leukemia
SK-MEL-28 melanoma = test system: SK-MEL-28 melanoma
RXF 393 renal = test system: RXF 393 renal
NCI-H226 lung = test system: NCI-H226 lung
NCI-H522 lung = test system: NCI-H522 lung
HT29 colon = test system: HT29 colon
NCI-H23 lung = test system: NCI-H23 lung
SF-268 CNS = test system: SF-268 CNS

SMILES: NS(=O)(=O)c1cc2c(cc1Cl)NC(/C(=N/NC(=O)c1ccncc1)C1C(=O)NC(=O)NC1=O)=NS2(=O)=O
- TGI (RXF-631 renal): > 100 µM
- TGI (RPMI-8226 leukemia): > 100 µM
- TGI (K-562 leukemia): > 100 µM
- TGI (CCRF-CEM leukemia): > 100 µM
- TGI (LXFL 529 NSCLC): > 100 µM
- TGI (COLO 205 colon): > 100 µM
- TGI (HCT-116 colon): > 100 µM
- TGI (UACC-257 melanoma): > 100 µM
- TGI (DMS 273 small cell lung): > 100 µM
- TGI (OVCAR-3 ovarian): > 100 µM
- TGI (NCI-H460 lung): > 100 µM
- TGI (HOP-92 NSCLC): > 100 µM
- TGI (DMS 114 small cell lung): > 100 µM
- TGI (UO-31 renal): > 100 µM
- TGI (MOLT-4 leukemia): > 100 µM
- TGI (TK-10 renal): > 100 µM
- TGI (SF-295 CNS): > 100 µM
- TGI (U251 CNS): > 100 µM
- TGI (KM20L2 colon): > 100 µM
- TGI (KM12 colon): > 100 µM
- TGI (UACC-62 melanoma): > 100 µM
- TGI (M14 melanoma): > 100 µM
- TGI (HCC-2998 colon): > 100 µM
- TGI (HL-60(TB) leukemia): > 100 µM
- TGI (ACHN renal): > 100 µM
- TGI (M19-MEL melanoma): > 100 µM
- TGI (SW-620 colon): > 100 µM
- TGI (786-0 renal): > 100 µM
- TGI (OVCAR-5 ovarian): > 100 µM
- TGI (OVCAR-4 ovarian): > 100 µM
- TGI (LOX IMVI melanoma): > 100 µM
- TGI (SK-OV-3 ovarian): > 100 µM
- TGI (A498 renal): > 100 µM
- TGI (CAKI-1 renal): > 100 µM
- TGI (MALME-3M melanoma): > 100 µM
- TGI (EKVX NSCLC): > 100 µM
- TGI (OVCAR-8 ovarian): > 100 µM
- TGI (HOP-62 NSCLC): > 100 µM
- TGI (SNB-19 CNS): > 100 µM
- TGI (IGROV1 ovarian): > 100 µM
- TGI (SF-539 CNS): > 100 µM
- TGI (DLD-1 colon): > 100 µM
- TGI (SK-MEL-5 melanoma): > 100 µM
- TGI (SNB-78 CNS): > 100 µM
- TGI (A549 NSCLC): > 100 µM
- TGI (SK-MEL-2 melanoma): > 100 µM
- TGI (HCT-15 colon): > 100 µM

SMILES: Nc1ccccc1Nc1ccccc1C(=O)[O-].Nc1ccccc1Nc1ccccc1C(=O)[O-].[Ni+2]
- GI50 (RXF-631 renal): > 100 µM
- TGI (RXF-631 renal): > 100 µM
- TGI (RPMI-8226 leukemia): > 100 µM
- TGI (K-562 leukemia): > 100 µM
- TGI (CCRF-CEM leukemia): > 100 µM
- TGI (SNB-75 CNS): > 100 µM
- TGI (COLO 205 colon): > 100 µM
- TGI (HCT-116 colon): > 100 µM
- TGI (SN12C renal): > 100 µM
- TGI (UACC-257 melanoma): > 100 µM
- TGI (OVCAR-3 ovarian): > 100 µM
- TGI (NCI-H460 lung): > 100 µM
- GI50 (SR leukemia): > 100 µM
- TGI (SR leukemia): > 100 µM
- GI50 (HOP-92 NSCLC): > 100 µM
- TGI (HOP-92 NSCLC): > 100 µM
- TGI (SK-MEL-28 melanoma): > 100 µM
- TGI (UO-31 renal): > 100 µM
- TGI (MOLT-4 leukemia): > 100 µM
- TGI (TK-10 renal): > 100 µM
- TGI (SF-295 CNS): > 100 µM
- TGI (U251 CNS): > 100 µM
- TGI (KM20L2 colon): > 100 µM
- GI50 (RXF 393 renal): 60.1 µM
- TGI (RXF 393 renal): > 100 µM
- TGI (KM12 colon): > 100 µM
- TGI (UACC-62 melanoma): > 100 µM
- TGI (M14 melanoma): > 100 µM
- TGI (HCC-2998 colon): > 100 µM
- GI50 (HL-60(TB) leukemia): > 100 µM
- TGI (HL-60(TB) leukemia): > 100 µM
- TGI (ACHN renal): > 100 µM
- TGI (SW-620 colon): > 100 µM
- TGI (786-0 renal): > 100 µM
- TGI (OVCAR-5 ovarian): > 100 µM
- GI50 (OVCAR-4 ovarian): 67.8 µM
- TGI (OVCAR-4 ovarian): > 100 µM
- GI50 (LOX IMVI melanoma): > 100 µM
- TGI (LOX IMVI melanoma): > 100 µM
- GI50 (NCI-H226 lung): > 100 µM
- TGI (NCI-H226 lung): > 100 µM
- TGI (SK-OV-3 ovarian): > 100 µM
- TGI (NCI-H522 lung): 86 µM
- TGI (CAKI-1 renal): > 100 µM
- TGI (MALME-3M melanoma): > 100 µM
- TGI (EKVX NSCLC): > 100 µM
- TGI (OVCAR-8 ovarian): > 100 µM
- TGI (SNB-19 CNS): > 100 µM
- TGI (IGROV1 ovarian): > 100 µM
- TGI (HT29 colon): > 100 µM
- TGI (SF-539 CNS): > 100 µM
- TGI (NCI-H23 lung): > 100 µM
- TGI (SF-268 CNS): > 100 µM
- TGI (SK-MEL-5 melanoma): > 100 µM
- TGI (A549 NSCLC): > 100 µM
- TGI (HCT-15 colon): > 100 µM
